These results are taken from patent US9675606B2, “2-amino-3-(imidazol-2-yl)-pyridin-4-one derivatives and their use as VEGF receptor kinase inhibitors” (SANOFI, priority 2011, dated 2017).

T1 sequence (P35916 25-1363, species assumed): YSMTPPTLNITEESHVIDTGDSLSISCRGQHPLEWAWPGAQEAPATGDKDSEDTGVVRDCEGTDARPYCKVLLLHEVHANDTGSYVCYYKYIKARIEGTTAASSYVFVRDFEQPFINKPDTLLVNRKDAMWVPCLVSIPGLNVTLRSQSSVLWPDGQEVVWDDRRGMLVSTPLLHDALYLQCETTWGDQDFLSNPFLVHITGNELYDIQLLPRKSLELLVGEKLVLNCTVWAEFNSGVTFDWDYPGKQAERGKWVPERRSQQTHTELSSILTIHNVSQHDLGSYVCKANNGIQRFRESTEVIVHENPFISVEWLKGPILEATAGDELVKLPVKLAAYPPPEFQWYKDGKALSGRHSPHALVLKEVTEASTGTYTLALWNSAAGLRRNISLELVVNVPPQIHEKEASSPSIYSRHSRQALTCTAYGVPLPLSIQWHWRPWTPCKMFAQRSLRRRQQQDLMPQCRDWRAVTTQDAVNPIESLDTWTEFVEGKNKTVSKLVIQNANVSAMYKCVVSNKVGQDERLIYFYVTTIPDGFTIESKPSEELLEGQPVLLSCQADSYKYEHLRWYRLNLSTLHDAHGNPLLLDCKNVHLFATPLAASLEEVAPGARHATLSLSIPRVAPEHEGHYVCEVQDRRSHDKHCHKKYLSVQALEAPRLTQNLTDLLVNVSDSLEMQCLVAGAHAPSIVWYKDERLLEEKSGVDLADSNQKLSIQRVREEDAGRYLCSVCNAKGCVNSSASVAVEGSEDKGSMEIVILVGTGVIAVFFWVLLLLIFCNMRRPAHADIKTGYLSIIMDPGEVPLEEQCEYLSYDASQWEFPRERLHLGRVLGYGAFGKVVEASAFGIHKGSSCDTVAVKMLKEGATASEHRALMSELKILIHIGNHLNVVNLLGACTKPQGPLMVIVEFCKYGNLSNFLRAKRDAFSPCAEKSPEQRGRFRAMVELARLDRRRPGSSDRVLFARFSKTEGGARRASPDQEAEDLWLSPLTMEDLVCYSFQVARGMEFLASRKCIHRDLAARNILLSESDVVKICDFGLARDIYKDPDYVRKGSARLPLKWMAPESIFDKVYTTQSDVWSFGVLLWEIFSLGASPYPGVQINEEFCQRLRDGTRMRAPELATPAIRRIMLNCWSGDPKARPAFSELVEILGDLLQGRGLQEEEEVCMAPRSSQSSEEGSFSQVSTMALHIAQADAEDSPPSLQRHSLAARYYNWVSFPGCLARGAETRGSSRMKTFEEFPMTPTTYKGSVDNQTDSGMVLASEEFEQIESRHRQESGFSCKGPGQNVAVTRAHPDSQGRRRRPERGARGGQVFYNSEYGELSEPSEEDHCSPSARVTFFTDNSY

The first assay concerns the target T1, VEGFR-3 (Homo sapiens, UniProt P35916).
T1 construct: expressed in transfected cells; host or cells: HEK293T cells, transient transfection with Fugene-6
Nature of the assay: Effect of compounds on VEGFR-3 auto-phosphorylation in HEK cells (ELISA). To be noted: autophosphorylation of VEGFR-3-Flag overexpressed in HEK293T cells, 1 h incubation with compound. The format is cell-based. On the procedure: Effect of Compounds on VEGFR-3 Auto-Phosphorylation in HEK Cells
The effects of compounds in blocking VEGFR-3 autophosphorylation were quatified by ELISA after Overexpression of VEGFR-3 in HEK cells. HEK293T cells were maintained in MEM supplemented with 10% foetal calf serum (FCS) and glutamine. The day before transfection, […] were seeded on 48 wells plates and transfection was done using Fugene-6 (Roche, Basel). Fugene-6 (18 μL) was preincubated for 5 min with 282 μl of optimem. Then 3 μg DNA corresponding VFGR-3-Flag was added and left at room temperature during 10 min before distributing 200 μl on HEK cells. After 24 h, the medium was removed and replaced by a new one without serum and incubated for 1 h with different concentrations (ranging from 3 to 1000 nM) of each compound. After additional 30 min incubation with Orthovanadate (0.4 mM), cells were washed with cold PBS supplemented by orthovanadate and then lysed with 300 μl of RIPA buffer. Lysates were then centrifuged during 10 min at 10000 g. Supernatants (75 μl) were distributed in duplicate on 96 well plate precoated with the anti-Flag and left during 1 hour at room temperature. After 3 washes with TBS buffer containing 0.5% tween 20, the anti-phospho-tyrosine conjugated to the HRP was added and incubated for 1 hour at room temperature. Wells were then washed 3 times with TBS buffer containing tween 20 (0.5%) and MgCl2 (2 mM). The reaction was stopped with 50 μl of H2SO4 (2 N) and the signal was read at Envision at 485 and 530.
The concentration-response curves were analyzed with internal software Biost@t-SPEED v2.0 using the 4-parameter logistic model according to Ratkovsky and Reedy (Ratkovsky D A., Reedy T J. Choosing near-linear parameters in the four parameters logistic model radioligands and related assays. Biometrics 1986 September 42(3):575-82.)
For orientation: ELISA stands for enzyme-linked immunosorbent assay.
With `CCn1c(N)c(-c2ncc[nH]2)c(=O)c2ccc(C#CC(C)(O)CO)nc21` (racemic) [Compound 3, 2-Amino-7-(3,4-dihydroxy-3-methyl-but-1-ynyl)-1-ethyl-3-(1H-imidazol-2-yl)-1H-[1,8]naphthyridin-4-one], the IC50 was found to be 125 nM. Regarding `CCC(O)C#Cc1ccc2c(=O)c(-c3ncc[nH]3)c(N)n(CC3CC3)c2n1` (racemic) [Compound 6, 2-Amino-1-(cyclopropylmethyl)-7-(3-hydroxypent-1-yn-1-yl)-3-(H-imidazol-2-yl)-1,8-naphthyridin-4(1H)-one], the IC50 is 85 nM.

Turning to `CCn1c(N)c(-c2ncc[nH]2)c(=O)c2ccc(C#CC(C)(O)c3ccccc3F)nc21` (racemic) [Compound 9, 2-Amino-1-ethyl-7-[3-(2-fluorophenyl)-3-hydroxybut-1-yn-1-yl]-3-(1H-imidazol-2-yl)-1,8-naphthyridin-4(1H)-one], the IC50 was determined as 16 nM. Still for that read-out and setting: to `CCC(O)C#Cc1ccc2c(=O)c(-c3ncc[nH]3)c(N)n(C3CCCC3)c2n1` (racemic) [Compound 10, 2-Amino-1-cyclopentyl-7-(3-hydroxypent-1-yn-1-yl)-3-(1H-imidazol-2-yl)-1,8-naphthyridin-4(1H)-one] belongs 37 nM; to `CCC(O)C#Cc1ccc2c(=O)c(-c3ncc[nH]3)c(N)n(CCCOC)c2n1` (racemic) [Compound 11, 2-Amino-7-(3-hydroxypent-1-yn-1-yl)-3-(1H-imidazol-2-yl)-1-(3-methoxypropyl)-1,8-naphthyridin-4(1H)-one], 334 nM. On to `CCC(O)C#Cc1ccc2c(=O)c(-c3ncc[nH]3)c(N)n(CCOC)c2n1` (racemic) [Compound 12, 2-Amino-7-(3-hydroxypent-1-yn-1-yl)-3-(1H-imidazol-2-yl)-1-(2-methoxyethyl)-1,8-naphthyridin-4(1H)-one], for which the IC50 was determined as 166 nM. Take `CCn1c(N)c(-c2ncc[nH]2)c(=O)c2ccc(C#CC(C)(O)CC)nc21` (racemic) [Compound 16, 2-Amino-1-ethyl-7-(3-hydroxy-3-methylpent-1-yn-1-yl)-3-(1H-imidazol-2-yl)-1,8-naphthyridin-4(1H)-one]: the IC50 is 119 nM.

With `CCn1c(N)c(-c2ncc[nH]2)c(=O)c2ccc(C#CC(C)(O)c3ccccc3)nc21` (racemic) [Compound 17, 2-Amino-1-ethyl-7-(3-hydroxy-3-phenylbut-1-yn-1-yl)-3-(1H-imidazol-2-yl)-1,8-naphthyridin-4(1H)-one], the IC50 was determined as 13 nM. In the case of `CCn1c(N)c(-c2ncc[nH]2)c(=O)c2ccc(C#CC(C)(O)c3cccc(F)c3)nc21` (racemic) [Compound 18, 2-Amino-1-ethyl-7-[3-(3-fluorophenyl)-3-hydroxybut-1-yn-1-yl]-3-(1H-imidazol-2-yl)-1,8-naphthyridin-4(1H)-one], the IC50 worked out at 36 nM. On to `CCn1c(N)c(-c2ncc[nH]2)c(=O)c2ccc(C#CC(O)(c3ccccc3)C(F)(F)F)nc21` (racemic) [Compound 19, 2-Amino-1-ethyl-3-(1H-imidazol-2-yl)-7-(4,4,4-trifluoro-3-hydroxy-3-phenylbut-1-yn-1-yl)-1,8-naphthyridin-4(1H)-one], for which the IC50 stood at 14 nM. On the same count and under the same terms, to `CCn1c(N)c(-c2ncc[nH]2)c(=O)c2ccc(C#CC(C)(O)c3cccs3)nc21` (racemic) [Compound 21, 2-Amino-1-ethyl-7-[3-hydroxy-3-(thiophen-2-yl)but-1-yn-1-yl]-3-(1H-imidazol-2-yl)-1,8-naphthyridin-4(1H)-one] belongs 24 nM; to `CCn1c(N)c(-c2ncc[nH]2)c(=O)c2ccc(C#CC(C)O)nc21` (racemic) [Compound 22, 2-Amino-1-ethyl-7-(3-hydroxybut-1-yn-1-yl)-3-(1H-imidazol-2-yl)-1,8-naphthyridin-4(1H)-one], 38 nM; to `CCC(O)C#Cc1ccc2c(=O)c(-c3ncc[nH]3)c(N)n(CC)c2n1` (racemic) [Compound 23, 2-Amino-1-ethyl-7-(3-hydroxypent-1-yn-1-yl)-3-(1H-imidazol-2-yl)-1,8-naphthyridin-4(1H)-one], 19 nM. On the same count and under the same terms, to `CCCC(O)C#Cc1ccc2c(=O)c(-c3ncc[nH]3)c(N)n(CC)c2n1` (racemic) [Compound 24, 2-Amino-1-ethyl-7-(3-hydroxyhex-1-yn-1-yl)-3-(1H-imidazol-2-yl)-1,8-naphthyridin-4(1H)-one] belongs 85 nM; to `CCn1c(N)c(-c2ncc[nH]2)c(=O)c2ccc(C#CC(O)C(C)C)nc21` (racemic) [Compound 25, 2-Amino-1-ethyl-7-(3-hydroxy-4-methylpent-1-yn-1-yl)-3-(1H-imidazol-2-yl)-1,8-naphthyridin-4(1H)-one], 303 nM; to `CCn1c(N)c(-c2ncc[nH]2)c(=O)c2ccc(C#CC(O)c3ccccc3)nc21` (racemic) [Compound 26, 2-Amino-1-ethyl-7-(3-hydroxy-3-phenylprop-1-yn-1-yl)-3-(1H-imidazol-2-yl)-1,8-naphthyridin-4(1H)-one], 120 nM. Still for that read-out and setting: for `CCCn1c(N)c(-c2ncc[nH]2)c(=O)c2ccc(C#C[C@@](C)(O)COC)nc21` [Compound 2, 2-Amino-1-propyl-7-((3R)-3-hydroxy-4-methoxy-3-methyl-but-1-ynyl)-3-(1H-imidazol-2-yl)-1H-[1,8]naphthyridin-4-one] the value was 18 nM; for `CCn1c(N)c(-c2ncc[nH]2)c(=O)c2ccc(C#C[C@@](C)(O)COC)cc21` [Compound 7, 2-Amino-1-ethyl-7-[(3R)-3-hydroxy-4-methoxy-3-methylbut-1-yn-1-yl]-3-(1H-imidazol-2-yl)quinolin-4(1H)-one], 19 nM. Turning to `CCn1c(N)c(-c2ncc[nH]2)c(=O)c2ccc(-c3ccc(O)c(Cl)c3)nc21` [Compound 8, 2-Amino-7-(3-chloro-4-hydroxyphenyl)-1-ethyl-3-(1H-imidazol-2-yl)-1,8-naphthyridin-4(1H)-one], the half-inhibitory concentration (IC50) is 73 nM. Same read-out and setting: to `CCn1c(N)c(-c2ncc[nH]2)c(=O)c2ccc(C#CC3(O)CCCC3)nc21` [Compound 14, 2-Amino-1-ethyl-7-[(1-hydroxycyclopentyl)ethynyl]-3-(1H-imidazol-2-yl)-1,8-naphthyridin-4(1H)-one] belongs 200 nM; to `CCn1c(N)c(-c2ncc[nH]2)c(=O)c2ccc(C#CC(C)(C)O)nc21` [Compound 15, 2-Amino-1-ethyl-7-(3-hydroxy-3-methylbut-1-yn-1-yl)-3-(1H-imidazol-2-yl)-1,8-naphthyridin-4(1H)-one], 27 nM. Turning to `CCn1c(N)c(-c2ncc[nH]2)c(=O)c2ccc(C#C[C@@](C)(O)CO)nc21` [Compound 27, 2-Amino-7-((3R)3,4-dihydroxy-3-methyl-but-1-ynyl)-1-ethyl-3-(1H-imidazol-2-yl)-1,8-naphthyridin-4(1H)-one], the IC50 was 47 nM. The same measure, in the same setting: to `CCn1c(N)c(-c2ncc[nH]2)c(=O)c2ccc(C#C[C@](C)(O)CO)nc21` [Compound 28, 2-Amino-7-((3S)3,4-dihydroxy-3-methyl-but-1-ynyl)-1-ethyl-3-(1H-imidazol-2-yl)-1,8-naphthyridin-4(1H)-one] belongs 153 nM. On the same count and under the same terms, for `CCn1c(N)c(-c2ncc[nH]2)c(=O)c2ccc(C#C[C@](C)(O)COC)nc21` [Compound 29, 2-Amino-1-ethyl-7-((3S)-3-hydroxy-4-methoxy-3-methyl-but-1-ynyl)-3-(1H-imidazol-2-yl)-1,8-naphthyridin-4(1H)-one] the value was 145 nM.

The target of the next assay is T1, VEGFR-3. Put plainly: Ex vivo assay: VEGFR-3 autophosphorylation in HEK cells incubated with plasma of mice dosed p.o. Particulars: HEK293, mouse; 3 h after single oral administration of 30 mg/kg to male Balb/c mice; transfected HEK cells incubated with plasma (10%); read-out: Ex vivo inhibition (%) At the time. Also noted: species or system male Balb/c mice. On the procedure: Protocol for administration of the products to the mice:
The products are prepared in a mortar with 0.5% Tween 80 and 0.6% methylcellulose qs final volume. The suspensions are administered by gavage (10 ml/kg) to male Balb/c mice 8 to 15 weeks old. Three hours or 6 hours after single oral administrations of 30 mg/kg, animals were anaesthetized with pentobarbital and blood samples (400 μL) were collected from cava vein and transferred into glass tubes containing lithium heparin. After centrifugation (1500-2000 g for 10 minutes), plasma samples were frozen at a temperature close to −20° C. until analysis.
In order to detect the ex vivo activity of the products in the plasmas, we have used the autophosphorylation assay in HEK cells described earlier. For this purpose, transfected cells were incubated with plasma (10%) instead of compounds. Results are expressed as percent of inhibition of VEGFR-3 autophosphorylation in comparison to untreated cells (maximum autophosphorylation) and to untransfected cells (background).
Results are expressed as a percentage of inhibition of VEGFR-3 auto-phosphorylation of in HEK cells, in presence of a plasma sample collected (at a time), after per os (p.o.) administration of compounds. In order to evaluate the increase of this activity for compounds of the invention, a comparison with compounds of the prior art (WO 2009/007535) and subjected to the same measurement is made in table 3.
As to `CCn1c(N)c(-c2ncc[nH]2)c(=O)c2ccc(C#CC(C)(O)CO)nc21` (racemic) [Compound 3, 2-Amino-7-(3,4-dihydroxy-3-methyl-but-1-ynyl)-1-ethyl-3-(1H-imidazol-2-yl)-1H-[1,8]naphthyridin-4-one], the inhibition at 30 mg/kg amounted to 51%. As for `CCn1c(N)c(-c2ncc[nH]2)c(=O)c2ccc(C#CC(C)(O)CC)nc21` (racemic) [Compound 16, 2-Amino-1-ethyl-7-(3-hydroxy-3-methylpent-1-yn-1-yl)-3-(1H-imidazol-2-yl)-1,8-naphthyridin-4(1H)-one], the inhibition at 30 mg/kg came to 48%.

The assay is the same for the next values; noted with them: HEK293, mouse; 6 h after single oral administration of 30 mg/kg to male Balb/c mice; transfected HEK cells incubated with plasma (10%); read-out: Ex vivo inhibition (%) At the time.
Take `CCn1c(N)c(-c2ncc[nH]2)c(=O)c2ccc(C#CC(C)(O)c3ccccc3)nc21` (racemic) [Compound 17, 2-Amino-1-ethyl-7-(3-hydroxy-3-phenylbut-1-yn-1-yl)-3-(1H-imidazol-2-yl)-1,8-naphthyridin-4(1H)-one]: the inhibition at 30 mg/kg is 37%. The same measure, in the same setting: for `CCn1c(N)c(-c2ncc[nH]2)c(=O)c2ccc(C#CC(C)O)nc21` (racemic) [Compound 22, 2-Amino-1-ethyl-7-(3-hydroxybut-1-yn-1-yl)-3-(1H-imidazol-2-yl)-1,8-naphthyridin-4(1H)-one] the value was 26%.

In general, IC50 refers to the concentration needed to halve the response being measured. What is called inhibition is the share of the control response that was lost under treatment.
